Where a name gives a salt, the structure may show the parent alone. Read-outs that look alike come from different tables or passages of the source.
Columns and labels:
[1] = tested on: nCoV-2019 (SARS-CoV2) infected Vero E6 cells; assay: microbe, parasite or virus in culture; format: cell-based, SARS-CoV-2; conditions: for inhibition at 0.075 µM: Severe acute respiratory syndrome coronavirus 2, Vero C1008, 0.075 μM
[2] = cited from earlier work; for Observed toxic effect: humans
[3] = African green monkeys; 1.6 mg/kg x 14 days; total dose 22.4; cited from earlier work
[4] = Rats; total of multi dose; cited from earlier work
[5] = mice; following 12 days post injection; cited from earlier work

Question: What does the source list for `NC(=O)c1cn([C@@H]2O[C@H](CO)[C@@H](O)[C@H]2O)c2ncnc(N)c12` [Oya1, 4-amino-7-((2R,3R,4S,5R)-3,4-dihydroxy-5-(hydroxymethyl)tetrahydrofuran-2-yl)-7H-pyrrolo[2,3-d]pyrimidine-5-carboxamide]?
Answer: average toxicity margin or selectivity index [1]: 4.8; toxicity margin or selectivity index, high [1]: 8.2; toxicity margin or selectivity index, low [1]: 3.1; fold increase in activity for Oya1 over chlorpromazine HCl ([1]; MOI 0.6, FIG. 4 and FIG. 5): 1000 fold; fold increase in activity for Oya1 over chlorpromazine HCl ([1]; MOI 1.3, FIG. 8 and FIG. 9): 1000 fold; inhibition at 0.075 µM ([1]; MOI 0.6 Plate 1): 95.5%; inhibition at 0.075 µM ([1]; MOI 0.6 Plate 2): 91.9%; inhibition at 0.075 µM ([1]; Plate 1): 93.8%; inhibition at 0.075 µM ([1]; Plate 2): 99.4%; anti-cancer activity ([2]; Phase I clinical trials during the 1960's): inactive against cancer; tolerability in humans ([2]; Phase I clinical trials, dosing levels of Table 8): well tolerated; Observed toxic effect ([2]; daily, highest dosing regimen 120 μg/kg/day x 41 days): 0; Observed toxic effect ([2]; thrice weekly, highest dosing regimen 50-250 μg/kg/day x 45 days): 0; Observed toxic effect ([2]; weekly, highest dosing regimen 200 μg/kg/day x 150 days): 0; Effect [3]: lethal; LD50, total dose [4]: 1.2 mg/kg; amount cleared [5]: 40%

Question: For `NC(=O)c1cn([C@@H]2O[C@H](CO)[C@@H](O)[C@H]2O)c2ncnc(N)c12` [Oya2, 4-amino-7-((2R,3R,4S,5R)-3,4-dihydroxy-5-(hydroxymethyl)tetrahydrofuran-2-yl)-7H-pyrrolo[2,3-d]pyrimidine-5-carboxamide hydrochloride], which inhibition at 0.0094 µM ([1]; Severe acute respiratory syndrome coronavirus 2, Vero C1008, 0.0094 μM, MOI 0.6 Plate 2, Table 4C) is on record?
Answer: The inhibition at 0.0094 µM was 33.9%.

Question: And the inhibition at 0.0375 µM ([1]; Severe acute respiratory syndrome coronavirus 2, Vero C1008, 0.0375 μM, Plate 2, Table 6C)?
Answer: The inhibition at 0.0375 µM was 12.2%.

Question: And the inhibition at 0.075 µM ([1]; MOI 0.6 Plate 1, Table 3C)?
Answer: The inhibition at 0.075 µM was 45.6%.

Question: What about the inhibition at 0.075 µM ([1]; MOI 0.6 Plate 2, Table 4C) of the same compound?
Answer: The inhibition at 0.075 µM was 83.1%.

Question: What about the inhibition at 0.15 µM ([1]; Severe acute respiratory syndrome coronavirus 2, Vero C1008, 0.15 μM, MOI 0.6 Plate 1, Table 3C) of the same compound?
Answer: Its inhibition at 0.15 µM is 90.1%.

From patent publication US20210236497A1 (priority 2020, published 2021)
